We go through five compounds from PMC3184404 (The FEBS journal, 2011).

Where two headings read alike, the source gives them in different places.

The target of experiment [1] is T1, Bovine liver glutamate dehydrogenase (Bos taurus, UniProt P00366). Description: Initial rate kinetics of oxidative deamination, zinc inhibition. The experiment is classed as biochemical.
Experiment [2] deals with immobilized trypsin. Briefly: Control experiments with azocasein on immobilized protease. As to conditions: azocasein as substrate, zinc at the concentrations used. It counts as biochemical.
Experiment [3] deals with T1, Bovine liver glutamate dehydrogenase. Particulars: plus zinc.
The target is the same in experiment [4]. Particulars: pH 7.0, 1mM NAD^+.
The target is the same in experiment [5]. Briefly: Thermal stability by differential scanning calorimetry. The experiment is classed as binding. In general terms: In DSC, transitions show as peaks or steps in heat flow.
Experiment [6] shares this target. Particulars: cited from earlier work.
For experiment [7] the target is unchanged. Description: Fluorescence titrations of reduced cofactor binding. Particulars: NADPH, pH 8.0.
Where [8] appears, read: control experiments, data not shown.
Where [9] appears, read: enzyme + 20mM glutamate + zinc, pH 7.0.
Where [10] appears, read: enzyme + 200mM norvaline + zinc, pH 7.0.
Where [11] appears, read: enzyme + zinc, 0.1 M phosphate pH 7.0.
The mark [12] stands for this setting: enzyme + 200mM norvaline, pH 7.0.

T1 sequence (P00366 58-558): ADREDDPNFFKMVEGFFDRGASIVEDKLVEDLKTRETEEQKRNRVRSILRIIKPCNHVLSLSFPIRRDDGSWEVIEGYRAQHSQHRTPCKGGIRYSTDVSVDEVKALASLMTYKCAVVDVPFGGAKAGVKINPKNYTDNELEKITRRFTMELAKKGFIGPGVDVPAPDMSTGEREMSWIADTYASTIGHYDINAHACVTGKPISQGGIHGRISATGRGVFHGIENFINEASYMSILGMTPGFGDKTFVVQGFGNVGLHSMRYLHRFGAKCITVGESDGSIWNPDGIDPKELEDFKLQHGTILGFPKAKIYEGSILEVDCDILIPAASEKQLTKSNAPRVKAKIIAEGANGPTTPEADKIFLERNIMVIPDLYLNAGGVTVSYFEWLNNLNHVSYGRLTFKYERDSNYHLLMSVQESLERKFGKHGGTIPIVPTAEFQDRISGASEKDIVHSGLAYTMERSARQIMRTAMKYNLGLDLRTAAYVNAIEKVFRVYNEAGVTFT

As for `[Mg+2]` [magnesium], in experiment [1] (setting [8]), the “Effect on the activity of the enzyme” value was “no effect” and the “Effect on the inhibition by zinc” value is “no effect”.

For `CC(=O)[O-].CC(=O)[O-].[Zn+2]` [Zinc, zinc acetate], the “Effect on the immobilized protease” value in experiment [2] is on record as “did not effect”. Also, in experiment [3] (5 Mins, pH 8.0), the “Fragment 3446 (residues 114–146) Peak Height relative to ACTH standard” value is recorded as 0.52, the “Fragment 4089 (residues 1–35) Peak Height relative to ACTH standard” value was 0 and the “Fragment 34,645 (residues 144–459) Peak Height relative to Native” value came out at 0.17. For the same compound, in experiment [3] (10 Mins, pH 8.0), the “Fragment 3446 (residues 114–146) Peak Height relative to ACTH standard” value was 0.54, the “Fragment 4089 (residues 1–35) Peak Height relative to ACTH standard” value is given as 0.16 and the “Fragment 34,645 (residues 144–459) Peak Height relative to Native” value is on record as 0.18. In experiment [3] (15 Mins, pH 8.0), the “Fragment 3446 (residues 114–146) Peak Height relative to ACTH standard” value amounted to 0.75, the “Fragment 4089 (residues 1–35) Peak Height relative to ACTH standard” value came to 0.68 and the “Fragment 34,645 (residues 144–459) Peak Height relative to Native” value amounted to 0.86. In experiment [3] (Time = 0, pH 8.0), the “Fragment 3446 (residues 114–146) Peak Height relative to ACTH standard” value is 0, the “Fragment 4089 (residues 1–35) Peak Height relative to ACTH standard” value came out at 0 and the “Fragment 34,645 (residues 144–459) Peak Height relative to Native” value is 0. In experiment [4] (50mM glutamate + 100μM zinc), the “Pre-Steady State Burst Amplitude” value is 1.053 340F450, the “Pre-Steady State Burst Rate” value is recorded as 0.858 340F450/sec and the “Steady State Rate” value is reported as 0.187 340F450/sec. Also, in experiment [4] (50mM glutamate + 200μM zinc), the “Pre-Steady State Burst Amplitude” value was 0.771 340F450, the “Pre-Steady State Burst Rate” value was 0.972 340F450/sec and the “Steady State Rate” value is 0.158 340F450/sec. Moreover, the “Inhibition at saturating concentrations of substrates” value in experiment [1] was “potent inhibitor”. In addition, in experiment [1] (pH 8), the “Inhibition of oxidative deamination with glutamate as substrate” value is recorded as “effective inhibition” and the “Inhibition of oxidative deamination with norvaline as substrate” value is recorded as “no significant inhibition”. In addition, in experiment [5] (setting [9]), the TM was 59.3 °C, the ΔH worked out at 126.4 and the ΔS worked out at 0.381. In addition, in experiment [5] (setting [10]), the TM came to 68.1 °C, the ΔH stood at 179.9 and the ΔS is recorded as 0.528. For the same compound, in experiment [5] (setting [11]), the TM came out at 59.2 °C, the ΔH worked out at 128.9 and the ΔS was 0.388.

Consider `CCC[C@H](N)C(=O)O` [Norvaline, norvaline], for which, in experiment [5] (setting [12]), the TM was determined as 67.8 °C, the ΔH is recorded as 188.7 and the ΔS worked out at 0.554.

For the compound `[Cl-].[Cl-].[Cl-].[Eu+3]` [Eu^3+, europium (III) chloride], in experiment [6], the “Effect on the ability of zinc to inhibit the enzyme” value is reported as “reversed” and the “Effect on the activity of the enzyme” value is listed as “no effect”.

For `NC(=O)C1=CN([C@@H]2O[C@H](COP(=O)(O)OP(=O)(O)OC[C@H]3O[C@@H](n4cnc5c(N)ncnc54)[C@H](OP(=O)(O)O)[C@@H]3O)[C@@H](O)[C@H]2O)C=CC1` [NADPH, Nicotinamide Adenine Dinucleotide Phosphate], the Kd – broadly, the constant that tells how readily two partners part at equilibrium – was 1.04 µM in experiment [7] (+ 100 μM zinc); 1.72 µM in experiment [7] (+20mM glutamate + 100 μM zinc); 2.4 µM in experiment [7] (+20mM glutamate); 9.27 µM in experiment [7] (+200mM norvaline + 100 μM zinc); 7.35 µM in experiment [7] (+200mM norvaline); 6.33 µM in experiment [7] (no additions).
